Experimental findings from article PMC12397910 are described below.

For data set [1], the system named is dsBcl3 WT (90-bp dsBcl3-G4) (DNA, G4) CAGGAAACCCCTGGGGCGTACGGGTGGCCCCGGGGGGGCCGGGGGCGGGGAGGCGGGCGGCCGGCACCGCCCCGGCCGACAAAAGTCCCT/AGGGACTTTTGTCGGCCGGGGCGGTGCCGGCCGCCCGCCTCCCCGCCCCCGGCCCCCCCGGGGCCACCCGTACGCCCCAGGGGTTTCCTG
Briefly: NMM fluorescence turn-on (610 nm). Particulars: 1 mM K+ (KCl); 10% PEG8000; also 100 mM KCl without PEG; 25 °C; 1 μM NMM, 2 μM DNA.

Data set [2] relates to dsBcl3 G6/8A (DNA, duplex) CAGGAAACCCCTGGGGCGTACGGGTGGCCCCGGGGGGGCCGGAGGCGGAGAGGCGGGCGGCCGGCACCGCCCCGGCCGACAAAAGTCCCT/AGGGACTTTTGTCGGCCGGGGCGGTGCCGGCCGCCCGCCTCTCCGCCTCCGGCCCCCCCGGGGCCACCCGTACGCCCCAGGGGTTTCCTG
Kind of data set: NMM fluorescence turn-on (610 nm). Particulars: 1 mM K+ (KCl); 10% PEG8000; also 100 mM KCl without PEG; 25 °C; 1 μM NMM, 2 μM DNA; no peak.

The subject of data set [3] is dsBcl3 GI/IVA (DNA, duplex) CAGGAAACCCCTGGGGCGTACGGGTGGCCCCGGAAAGGCCGGGGGCGGGGAGGCAAACGGCCGGCACCGCCCCGGCCGACAAAAGTCCCT/AGGGACTTTTGTCGGCCGGGGCGGTGCCGGCCGTTTGCCTCCCCGCCCCCGGCCTTTCCGGGGCCACCCGTACGCCCCAGGGGTTTCCTG
Kind of data set: NMM fluorescence turn-on (610 nm). The note with it: 1 mM K+ (KCl); 10% PEG8000; also 100 mM KCl without PEG; 25 °C; 1 μM NMM, 2 μM DNA; no peak.

Data set [4] has as its system Bcl3 G6A (DNA, G4) CGGGGGGGCCGGAGGCGGGGAGGCGGGCGG
Kind of data set: CD melting at 284 nm. Particulars: 100 mM K+ (KCl); 10 mM Tris-HCl pH 7.5; 20 μM ligand, ligand:G4 2:1; stabilised.

The subject of data set [5] is Bcl3 G6/8A (DNA, G4) CGGGGGGGCCGGAGGCGGAGAGGCGGGCGG
Briefly: CD melting at 284 nm. The note with it: 100 mM K+ (KCl); 10 mM Tris-HCl pH 7.5; 20 μM ligand, ligand:G4 2:1; stabilised.

The subject of data set [6] is Bcl3 GI/IVA (DNA, G4) CGGAAAGGCCGGGGGCGGGGAGGCAAACGG
Briefly: CD melting at 284 nm. Particulars: 100 mM K+ (KCl); 10 mM Tris-HCl pH 7.5; 20 μM ligand, ligand:G4 2:1; stabilised.

In data set [7] the test system is Bcl3 promoter WT (30-nt, G-rich positive strand) (DNA, G4) CGGGGGGGCCGGGGGCGGGGAGGCGGGCGG
Briefly: ThT fluorescence turn-on (490 nm). The note with it: 100 mM K+ (KCl); 10 mM Tris-HCl pH 7.5, 25 °C; 0.5 μM ThT, 1 μM DNA.

For data set [8], the system named is Bcl3 G6A (DNA, G4) CGGGGGGGCCGGAGGCGGGGAGGCGGGCGG
Kind of data set: CD melting at 264 nm. The note with it: 100 mM K+ (KCl); 10 mM Tris-HCl pH 7.5; 20 μM ligand, ligand:G4 2:1; stabilised.

Data set [9] deals with Bcl3 G6/8A (DNA, G4) CGGGGGGGCCGGAGGCGGAGAGGCGGGCGG
Briefly: CD melting at 264 nm. Particulars: 100 mM K+ (KCl); 10 mM Tris-HCl pH 7.5; 20 μM ligand, ligand:G4 2:1; stabilised.

Data set [10] concerns Bcl3 GI/IVA (DNA, G4) CGGAAAGGCCGGGGGCGGGGAGGCAAACGG
Briefly: CD melting at 264 nm. The note with it: 100 mM K+ (KCl); 10 mM Tris-HCl pH 7.5; 20 μM ligand, ligand:G4 2:1; stabilised.

The target of data set [11] is T1, SP1 (UniProt P08047 1-785). Briefly: EMSA; annealed in 100 mM KCl; Hill 4.42; EMSA: 10 mM HEPES-NaOH pH 7.3, 50 mM KCl, 5 mM MgCl2, 0.5 mM DTT, 5% glycerol, 0.5 mg/mL BSA, 1 h, gel at 4 C; BLI: PBS, room temperature; oligos annealed in 10 mM Tris-HCl pH 7.5 +/- 100 mM KCl. The note with it: protein: commercial; label: 5' biotin (BLI); G4, parallel, intra- and intermolecular.
T1 sequence (P08047 whole entry): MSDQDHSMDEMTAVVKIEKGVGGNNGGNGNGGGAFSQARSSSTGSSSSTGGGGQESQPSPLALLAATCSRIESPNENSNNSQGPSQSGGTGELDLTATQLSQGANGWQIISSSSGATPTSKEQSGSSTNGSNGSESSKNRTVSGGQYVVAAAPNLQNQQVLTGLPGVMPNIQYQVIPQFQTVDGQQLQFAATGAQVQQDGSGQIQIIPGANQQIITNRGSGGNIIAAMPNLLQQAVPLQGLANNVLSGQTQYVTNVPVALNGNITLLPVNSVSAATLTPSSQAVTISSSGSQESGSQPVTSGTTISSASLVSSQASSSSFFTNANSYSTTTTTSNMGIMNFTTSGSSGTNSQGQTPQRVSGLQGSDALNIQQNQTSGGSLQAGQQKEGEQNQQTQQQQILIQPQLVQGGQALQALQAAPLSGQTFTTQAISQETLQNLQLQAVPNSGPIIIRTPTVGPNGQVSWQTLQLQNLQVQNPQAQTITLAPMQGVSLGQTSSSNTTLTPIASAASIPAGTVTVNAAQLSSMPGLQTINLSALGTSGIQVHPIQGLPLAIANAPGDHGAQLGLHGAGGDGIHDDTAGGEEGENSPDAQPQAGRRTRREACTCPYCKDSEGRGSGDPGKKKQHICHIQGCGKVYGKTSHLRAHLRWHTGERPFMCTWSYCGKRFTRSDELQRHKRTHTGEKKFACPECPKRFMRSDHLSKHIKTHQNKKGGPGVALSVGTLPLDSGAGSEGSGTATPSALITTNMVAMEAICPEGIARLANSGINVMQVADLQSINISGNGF

Data set [12] has as its target T1, SP1. Kind of data set: BLI; annealed in 100 mM KCl; local 1:1 fit at 457 nM SP1; not truly 1:1; EMSA: 10 mM HEPES-NaOH pH 7.3, 50 mM KCl, 5 mM MgCl2, 0.5 mM DTT, 5% glycerol, 0.5 mg/mL BSA, 1 h, gel at 4 C; BLI: PBS, room temperature; oligos annealed in 10 mM Tris-HCl pH 7.5 +/- 100 mM KCl. The note with it: protein: commercial; label: 5' biotin (BLI); G4, parallel, intra- and intermolecular.

Data set [13] addresses T1, SP1. Kind of data set: EMSA; annealed without KCl; EMSA: 10 mM HEPES-NaOH pH 7.3, 50 mM KCl, 5 mM MgCl2, 0.5 mM DTT, 5% glycerol, 0.5 mg/mL BSA, 1 h, gel at 4 C; BLI: PBS, room temperature; oligos annealed in 10 mM Tris-HCl pH 7.5 +/- 100 mM KCl. The note with it: protein: commercial; single strand.
Data set [14] deals with T1, SP1. Briefly: EMSA; annealed in KCl, purified Inter 1; Hill 3.53; EMSA: 10 mM HEPES-NaOH pH 7.3, 50 mM KCl, 5 mM MgCl2, 0.5 mM DTT, 5% glycerol, 0.5 mg/mL BSA, 1 h, gel at 4 C; BLI: PBS, room temperature; oligos annealed in 10 mM Tris-HCl pH 7.5 +/- 100 mM KCl. The note with it: protein: commercial.
The target in data set [15] is T1, SP1. Briefly: EMSA; annealed with KCl; Kd only in Fig S13B; EMSA: 10 mM HEPES-NaOH pH 7.3, 50 mM KCl, 5 mM MgCl2, 0.5 mM DTT, 5% glycerol, 0.5 mg/mL BSA, 1 h, gel at 4 C; BLI: PBS, room temperature; oligos annealed in 10 mM Tris-HCl pH 7.5 +/- 100 mM KCl. The note with it: protein: commercial; G4.

For the molecule `CCc1c(C)c2cc3nc(cc4nc(cc5c(CC)c(C)c(cc1[nH]2)n5C)C(C)=C4CCC(=O)O)C(CCC(=O)O)=C3C`, the results for the binding result in [1], in data set [2] and in data set [3] were “yes”, “no” and “no”, respectively.

On to `C[n+]1ccc(-c2c3nc(c(-c4cc[n+](C)cc4)c4ccc([nH]4)c(-c4cc[n+](C)cc4)c4nc(c(-c5cc[n+](C)cc5)c5ccc2[nH]5)C=C4)C=C3)cc1`, for which the binding result in [4], in data set [5] and in data set [6] was “yes” each time.

As to `Cc1ccc2c(c1)sc(-c1ccc(N(C)C)cc1)[n+]2C`, the binding entry in data set [7] is listed as “yes”.

With `NCCOc1cc(C(=O)Nc2cc(OCCN)c3ccccc3n2)nc(C(=O)Nc2cc(OCCN)c3ccccc3n2)c1`, the binding entry in data set [8], in [9] and in data set [10] was “yes” each time.

For the molecule GGGGGCCGGGGGCGGGGAGGCGGG (structured_DNA) [Bcl3 WT 24-nt, annealed with KCl (G4)], the Kd in the data set with SP1 [11] is 19.1 nM; in the data set with SP1 [12], 2.36 nM.

Consider GGGUCCGGGCCGGGUGGG (ssRNA) [G4 RNA annealed without KCl], for which, in the data set with SP1 [13], the binding result is “binds”.

Regarding AGAGACCGGGGGCGGGGAGACGAG (structured_DNA) [PCNG4 Inter 1, annealed with KCl], binding with SP1 [14] was characterised by a dissociation constant (Kd) of 24.5 nM.

As for GGGUCCGGGCCGGGUGGG (structured_RNA) [G4 RNA (KCl)], the binding result with SP1 [15] was “binds”.
